Read-outs that look alike come from different tables or passages of the source.
What was measured:
P19 neurons [1] = assay: A23187-induced toxicity in P19 neurons (Alamar blue); format: cell-based, murine; settings: Mus musculus, Neuron, 24 h
Protocol: Cells were then assayed for Alamar blue fluorescence. […] Data points are represented as percent of control cells ±standard error.

Casein Kinase 2 = target: T1, Casein Kinase 2 (Homo sapiens, UniProt P68400); assay: Kinase assay (33P Flashplate), Casein Kinase 2; format: biochemical; settings: mean of at least two curves
T1 construct: host or cells: E. coli
T1 sequence (P68400 whole entry): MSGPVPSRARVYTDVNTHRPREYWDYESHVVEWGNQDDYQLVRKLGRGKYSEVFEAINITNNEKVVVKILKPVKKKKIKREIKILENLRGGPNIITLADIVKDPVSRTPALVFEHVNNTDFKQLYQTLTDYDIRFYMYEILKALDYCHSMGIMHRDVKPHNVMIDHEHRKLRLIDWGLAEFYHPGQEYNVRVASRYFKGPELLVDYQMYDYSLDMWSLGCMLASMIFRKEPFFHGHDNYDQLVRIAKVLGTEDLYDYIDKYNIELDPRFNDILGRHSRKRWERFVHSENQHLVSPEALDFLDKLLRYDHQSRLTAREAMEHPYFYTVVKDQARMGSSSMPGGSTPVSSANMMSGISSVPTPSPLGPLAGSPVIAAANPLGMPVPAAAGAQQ
T1 sequence (P67870 whole entry partner): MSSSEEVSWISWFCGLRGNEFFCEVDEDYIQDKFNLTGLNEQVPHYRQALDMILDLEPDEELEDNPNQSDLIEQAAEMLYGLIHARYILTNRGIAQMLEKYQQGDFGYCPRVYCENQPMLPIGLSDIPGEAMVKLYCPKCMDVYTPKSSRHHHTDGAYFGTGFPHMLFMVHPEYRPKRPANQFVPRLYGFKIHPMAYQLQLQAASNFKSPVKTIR
Protocol: (§1) The general procedure used to assay for kinase activity was as follows: a kinase reaction mix was prepared in 50 mM Tris-HCl pH=8, 10 mM MgCl2, 0.1 mM Na3VO4, 1 mM DTT, 10 μM ATP, 0.25-1 μM biotinylated peptide substrate, 0.2-0.8 [Curies per well ^33P-γ-ATP [2000-3000 Ci/mmol]. Assay conditions varied slightly for each protein kinase, for example, insulin receptor kinase requires 10 mM MnCl2 for activity and calmodulin-dependent protein kinase requires calmodulin and 10 mM CaCl2. Reaction mix was dispensed into the wells of a streptavidin-coated Flashplate and 1 μl drug stock in 100% DMSO was added to a 100 μL reaction volume resulting in a final concentration of 1% DMSO in the reaction. Enzyme was diluted in 50 mM Tris-HCl pH=8.0, 0.1% BSA and added to each well. […] Test compounds were assayed in duplicate at 8 concentrations ranging from 100 μM to 10 μM in one order of magnitude steps. […] The IC50 was calculated from the dose response curve of the percent inhibition of the maximum signal in the assay according to the formula [max signal−background/test compound signal−background×(100)]=% inhibition by graphing the percent inhibition against the log concentration of test compound.
(§2) Casein Kinase 1 is a truncation at amino acid 318 of the C-terminal portion of the rat CK1 delta isoform produced in E. coli.

CDK1 = target: T2, CDK1 (Homo sapiens, UniProt P06493); assay: Kinase assay (33P Flashplate), CDK1; format: biochemical; settings: mean of at least two curves
T2 construct: host or cells: insect cells
T2 sequence (P06493 whole entry): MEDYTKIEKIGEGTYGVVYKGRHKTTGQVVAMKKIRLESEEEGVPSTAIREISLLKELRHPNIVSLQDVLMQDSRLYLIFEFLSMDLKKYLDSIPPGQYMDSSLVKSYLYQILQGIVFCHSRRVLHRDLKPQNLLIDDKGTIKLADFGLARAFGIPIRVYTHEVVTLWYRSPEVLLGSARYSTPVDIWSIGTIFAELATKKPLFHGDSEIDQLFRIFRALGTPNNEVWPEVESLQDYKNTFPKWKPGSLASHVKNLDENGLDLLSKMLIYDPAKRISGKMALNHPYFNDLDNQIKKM
T2 sequence (P14635 whole entry partner): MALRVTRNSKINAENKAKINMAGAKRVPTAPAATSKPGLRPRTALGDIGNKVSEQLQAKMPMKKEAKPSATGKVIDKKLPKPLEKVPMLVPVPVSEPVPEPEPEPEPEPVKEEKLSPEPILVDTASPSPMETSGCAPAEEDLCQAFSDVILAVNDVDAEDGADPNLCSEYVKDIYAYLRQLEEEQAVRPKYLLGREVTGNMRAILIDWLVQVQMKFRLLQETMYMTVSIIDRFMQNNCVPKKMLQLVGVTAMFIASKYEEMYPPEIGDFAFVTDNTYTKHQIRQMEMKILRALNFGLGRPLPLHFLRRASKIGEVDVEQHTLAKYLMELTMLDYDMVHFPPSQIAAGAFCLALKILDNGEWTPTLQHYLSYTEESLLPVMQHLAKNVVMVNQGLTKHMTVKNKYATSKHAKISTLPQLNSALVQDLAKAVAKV
Protocol: as §1, §2

Calmodulin Kinase = target: T3, Calmodulin Kinase (Rattus norvegicus, UniProt P11275); assay: Kinase assay (33P Flashplate), Calmodulin Kinase; format: biochemical; settings: mean of at least two curves
T3 construct: host or cells: insect cells
T3 sequence (P11275 1-325): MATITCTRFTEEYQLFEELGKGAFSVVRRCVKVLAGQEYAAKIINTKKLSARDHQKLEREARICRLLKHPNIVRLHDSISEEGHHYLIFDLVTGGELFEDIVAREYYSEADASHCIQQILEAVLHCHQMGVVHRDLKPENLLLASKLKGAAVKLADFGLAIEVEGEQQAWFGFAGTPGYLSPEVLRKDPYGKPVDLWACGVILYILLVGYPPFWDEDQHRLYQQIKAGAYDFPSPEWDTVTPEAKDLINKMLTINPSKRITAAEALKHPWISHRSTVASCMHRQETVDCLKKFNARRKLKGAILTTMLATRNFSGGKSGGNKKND
Protocol: as §1, §2

PK A = target: T4, PK A (Bos taurus, UniProt P00517); assay: Kinase assay (33P Flashplate), Protein Kinase A; format: biochemical, bovine
T4 construct: Protein Kinase A is the catalytic subunit of cAMP-dependent protein kinase-A purified from bovine heart; from tissue; host or cells: bovine heart
Protocol: (§3) Assay conditions varied slightly for each protein kinase, for example, insulin receptor kinase requires 10 mM MnCl2 for activity and calmodulin-dependent protein kinase requires calmodulin and 10 mM CaCl2. Reaction mix was dispensed into the wells of a streptavidin-coated Flashplate and 1 μl drug stock in 100% DMSO was added to a 100 μL reaction volume resulting in a final concentration of 1% DMSO in the reaction. Enzyme was diluted in 50 mM Tris-HCl pH=8.0, 0.1% BSA and added to each well. The reaction was incubated for one hour at 30° C. in the presence of compound. After one hour the reaction mix was aspirated from the plate and the plate was washed with PBS containing 100 mM EDTA. The plate was read on a scintillation counter to determine ^33P-γ-ATP incorporated into the immobilized peptide. Test compounds were assayed in duplicate at 8 concentrations ranging from 100 μM to 10 μM in one order of magnitude steps. A maximum and minimum signal for the assay was determined on each plate. The IC50 was calculated from the dose response curve of the percent inhibition of the maximum signal in the assay according to the formula [max signal−background/test compound signal−background×(100)]=% inhibition by graphing the percent inhibition against the log concentration of test compound. Known inhibitor compounds appropriate for the kinase being assayed were also included on each plate. […]

Insulin Receptor Kinase = target: T5, Insulin Receptor Kinase (Homo sapiens, UniProt P06213); assay: Kinase assay (33P Flashplate), Insulin Receptor Kinase; format: biochemical; settings: mean of at least two curves
T5 construct: Insulin Receptor Kinase consists of residues 941-1313 of the cytoplasmic domain of the beta-subunit of the human insulin receptor
Protocol: as §1, §2

Casein Kinase 1 = target: T6, Casein Kinase 1 (Rattus norvegicus, UniProt Q06486); assay: Kinase assay (33P Flashplate), Casein Kinase 1; format: biochemical; settings: mean of at least two curves
T6 construct: a truncation at amino acid 318 of the C-terminal portion of the rat CK1 delta isoform; host or cells: E. coli
T6 sequence (Q06486 1-317): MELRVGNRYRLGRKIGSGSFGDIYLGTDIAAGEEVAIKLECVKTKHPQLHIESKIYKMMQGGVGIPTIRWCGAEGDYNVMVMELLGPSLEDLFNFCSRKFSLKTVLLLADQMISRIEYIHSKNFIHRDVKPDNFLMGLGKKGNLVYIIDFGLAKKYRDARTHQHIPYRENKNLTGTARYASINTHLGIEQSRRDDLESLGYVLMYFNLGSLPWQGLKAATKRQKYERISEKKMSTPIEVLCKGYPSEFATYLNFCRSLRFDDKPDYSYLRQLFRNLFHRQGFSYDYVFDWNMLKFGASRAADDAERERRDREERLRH
Protocol: as §1, §2

[2] = tested on: differentiated P19 neurons; assay: Differentiated P19 excitotoxicity assay (glutamate/glycine-induced death, Alamar Blue); format: cell-based, murine; settings: for IC50: read-out: IC50 for Neuroprotection [lower-upper 95% C.I.]; for Emax: read-out: Maximal Efficacy for Neuroprotection
Protocol: Alamar Blue fluorescence, an indicator of cell viability, was used to determine cell viability after an NMDA-induced cytotoxic insult. […] However, since raw fluorescence counts vary from experiment to experiment, FIGS. 2A, 2B, and 2C are expressed as a percent of control.
(§4) Glutamate toxicity dose response in the presence of a constant 1 mM glycine concentration was measured in the differentiated P19 neurons. The curve generated through the data points is the average of 6 separate dose response curves. Data points are represented as the percent of control cells ±standard error. % control=(([Glutamate]exp−[Glutamate]max)/(Controlvehicle−[Glutamate]max))×100.
Data points are the average ±standard error of three separate experiments.
These cells were used to measure the effects of various known kinase inhibitors (Compound Identification (ID) column in Table I) upon cytotoxicity-induced by NMDA. First, P19 cells were differentiated as described in Example 2. Then cells were exposed to 3 mM of glutamate in the presence of 1 mM glycine.
Cell viability was determined. Compounds that prevented excitotoxicity were determined by measuring the percentage of viable cells compared to differentiated P19 cells that were not presented with a toxic insult (Table I).
Cell viability was measured using two methods. The first method was a confocal, single-cell fluorescence imaging-based method using the live cell dye carboxy-fluorescein diacetate (CFDA). CFDA labels the cell bodies and processes of living cells. […] CFDA fluorescence was measured using a modified Attofluor Imager device (Atto Instruments, Rockville Pike, Md.). Cells were labeled with 1 uM CFDA for 15 min in media, then placed onto the stage of the Attofluor microscope. The dye was excited by light from a mercury lamp source passed through a 488 nm bandpass filter of 10 nm band width, passed through a CARV real-time confocal spinning disk module (Atto Instruments, Rockville, Md.), and then passed through a 40× oil immersion objective (Zeiss Fluar, NA=1.3). Emitted light was transmitted through a 495 nm dichroic mirror, collected to an Attofluor intensified CCD camera, and images were visualized using Attofluor RatioVision software (Atto Instruments, Rockville, Md.).
The second method for measuring cell viability was a plate reader method. Cells plated into black 96 well plates (Packard viewplates) are loaded with 5% Alamar Blue dye (Biosource International). Alamar Blue is a dye that takes advantage of mitochondrial reductases to convert non-fluorescent resazurin to fluorescent resorufin (excitation 535 nm, emission 580 nm). Baseline fluorescence counts were read at room temperature in a Wallac plate reader immediately after addition of Alamar blue. Fluorescence counts of cell viability were taken the same way after 1 hour incubation at 37° C. Fluorescence was expressed as a percent of control, untreated cells after subtraction of background fluorescence. Live/dead cells were confirmed visually with a light microscope. […]

PKC-γ = target: T7, PKC-γ (Homo sapiens, UniProt P05129); assay: Kinase assay (33P Flashplate), PKC-γ; format: biochemical; settings: mean of at least two curves
T7 construct: host or cells: insect cells
Protocol: as §1, §2

CAMKII = settings: from the literature; read-out: Potency, CAMKII; cited from earlier work
p60^c-src = p60^c-src (Homo sapiens, UniProt P12931); settings: from the literature; read-out: Potency, p60^c-src; cited from earlier work
EGF receptor = EGF receptor (Homo sapiens, UniProt P00533); settings: from the literature; read-out: Potency, EGF receptor; cited from earlier work
EGF receptor, sequence (P00533 25-1210): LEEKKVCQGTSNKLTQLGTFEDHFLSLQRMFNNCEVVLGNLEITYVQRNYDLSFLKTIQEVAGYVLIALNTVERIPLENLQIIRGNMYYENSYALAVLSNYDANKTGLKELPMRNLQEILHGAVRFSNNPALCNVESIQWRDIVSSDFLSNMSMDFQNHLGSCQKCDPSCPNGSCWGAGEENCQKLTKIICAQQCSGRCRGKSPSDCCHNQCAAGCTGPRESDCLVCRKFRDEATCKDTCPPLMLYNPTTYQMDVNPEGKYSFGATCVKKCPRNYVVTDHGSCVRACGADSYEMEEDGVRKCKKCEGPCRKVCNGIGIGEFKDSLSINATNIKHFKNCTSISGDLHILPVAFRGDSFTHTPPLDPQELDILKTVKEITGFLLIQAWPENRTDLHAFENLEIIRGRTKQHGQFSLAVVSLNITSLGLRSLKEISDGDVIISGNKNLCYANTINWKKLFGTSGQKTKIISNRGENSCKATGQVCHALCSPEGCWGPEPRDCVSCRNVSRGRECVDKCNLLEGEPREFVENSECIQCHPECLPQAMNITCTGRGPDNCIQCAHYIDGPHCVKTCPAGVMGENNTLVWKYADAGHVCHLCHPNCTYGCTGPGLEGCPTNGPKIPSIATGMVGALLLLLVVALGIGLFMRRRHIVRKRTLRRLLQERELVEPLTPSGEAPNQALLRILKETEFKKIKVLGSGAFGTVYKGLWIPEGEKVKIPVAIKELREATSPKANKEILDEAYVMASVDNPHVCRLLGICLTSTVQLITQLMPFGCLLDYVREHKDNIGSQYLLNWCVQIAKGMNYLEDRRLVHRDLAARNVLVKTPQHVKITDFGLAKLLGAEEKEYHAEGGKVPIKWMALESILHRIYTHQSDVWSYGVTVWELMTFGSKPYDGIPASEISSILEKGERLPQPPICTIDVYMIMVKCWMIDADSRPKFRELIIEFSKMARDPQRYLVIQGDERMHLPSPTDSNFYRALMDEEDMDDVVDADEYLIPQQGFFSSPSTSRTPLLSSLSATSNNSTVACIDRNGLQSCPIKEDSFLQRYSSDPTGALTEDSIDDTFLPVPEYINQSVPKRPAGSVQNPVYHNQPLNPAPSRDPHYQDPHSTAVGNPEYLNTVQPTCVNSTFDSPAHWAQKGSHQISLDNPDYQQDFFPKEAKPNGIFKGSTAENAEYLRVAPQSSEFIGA

NMDA receptor [3] = settings: P19 membranes; concentration-dependent
Protocol: MK-801 inhibition of [^3H]-MK-801 binding was assayed in P19 membranes. MK-801 concentrations are expressed as 10^−x Molar. Data points represent the mean ±standard error from eight experiments. % control=((CPM−CPMbottom)/(CPMtop−CPMbottom))×100.
Data points represent the mean ±standard error from eight experiments.

NMDA receptor [4] = settings: 3 mM glutamate, 1 mM glycine; MK-801 100 μM, U0126 10 μM
Protocol: Cells were loaded with 5 μM Fura-2-AM (Molecular Probes) for 1 hr at 37° C. They were washed once with Hank's balanced salt solution (HBSS, Gibco BRL), and assayed in HBSS buffer. Cells were placed onto the stage of a modified ATTOFLUOR™ Imager (Atto Instruments, Rockville Pike, Md.). High speed, dual excitation of fura-2 was carried out using a RATIOARC™ High-Speed Excitor (Atto Instruments). Mercury lamp light was passed through 334 nm or 380 nm bandpass filters (10 nm band width), and then passed through a 20× objective (Zeiss, Plan-Apochromat, NA=0.75) at a rate of 2.5 Hz. Emitted light was transmitted through a 400 nm dichroic mirror, and collected to an ATTOFLUORT intensified CCD camera. Ratio-images were acquired, and the average intensity of the images when excited at 334 nm and 380 nm was analyzed using ATTOFLUOR RATIOVISION™ software (Atto Instruments, Rockville, Md.).
MK-801 was administered 24 hours prior to assay. Traces are the average ±standard error from three separate experiments for each condition. […] MK-801 inhibition of [^3H]-MK-801 binding was assayed in P19 membranes. MK-801 concentrations are expressed as 10^−x Molar. Data points represent the mean ±standard error from eight experiments. % control=((CPM−CPMbottom)/(CPMtop−CPMbottom))×100.
Traces are the average ±standard error from four separate experiments for each condition.

EGF-R = EGF-R (Homo sapiens, UniProt P00533); assay: biochemical
EGF-R, sequence (P00533 25-1210): as above
Protocol: as §3

P19 neurons [5] = tested on: P19 neurons
Protocol: as §4

PKC = settings: from the literature; read-out: Potency, PKC; cited from earlier work
PKA = PKA (Homo sapiens, UniProt P17612); settings: from the literature; read-out: Potency, PKA; cited from earlier work
PKG = target: T8, PKG (Homo sapiens, UniProt Q13976); settings: from the literature; read-out: Potency, PKG; cited from earlier work
T8 sequence (Q13976 1-671): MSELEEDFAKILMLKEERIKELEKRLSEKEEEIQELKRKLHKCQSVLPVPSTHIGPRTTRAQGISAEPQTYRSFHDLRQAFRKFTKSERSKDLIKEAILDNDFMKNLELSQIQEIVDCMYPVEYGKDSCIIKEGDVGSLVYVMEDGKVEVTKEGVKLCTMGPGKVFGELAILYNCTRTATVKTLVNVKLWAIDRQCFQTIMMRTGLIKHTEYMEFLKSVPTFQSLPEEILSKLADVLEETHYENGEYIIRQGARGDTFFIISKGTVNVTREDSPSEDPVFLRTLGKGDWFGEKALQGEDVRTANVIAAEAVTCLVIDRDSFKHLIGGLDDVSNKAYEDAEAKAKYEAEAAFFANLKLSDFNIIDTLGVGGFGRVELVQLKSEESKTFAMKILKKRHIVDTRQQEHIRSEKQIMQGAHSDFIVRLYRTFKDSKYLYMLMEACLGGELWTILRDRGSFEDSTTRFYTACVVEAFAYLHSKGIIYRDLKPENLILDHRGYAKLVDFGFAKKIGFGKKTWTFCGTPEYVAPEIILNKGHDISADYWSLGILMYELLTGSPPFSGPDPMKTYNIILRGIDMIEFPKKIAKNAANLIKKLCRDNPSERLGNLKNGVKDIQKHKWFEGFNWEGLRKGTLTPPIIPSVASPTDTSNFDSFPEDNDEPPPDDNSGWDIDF

[6] = Mus musculus, Neuron, 3 mM glutamate + 1 mM glycine, mean of three separate curves
[7] = Mus musculus, Neuron, 3 mM glutamate + 1 mM glycine
[8] = 3 mM glutamate + 1 mM glycine, mean of three separate curves

CNc1ccc2oc(C[C@H]3O[C@@]4(CC[C@H]3C)O[C@H]([C@H](C)C(=O)c3ccc[nH]3)[C@H](C)C[C@H]4C)nc2c1C(=O)O [A23187]
EC50 (P19 neurons [1]; read-out: EC50 for A23187 toxicity, 24 hours, in the absence of U0126): 520 nM | EC50 (P19 neurons [1]; read-out: EC50 for A23187 toxicity, 24 hours, in the presence of 10 μM U0126): 833 nM

COc1cc(N)nc2[nH]c(-c3ccc(F)cc3)c(-c3ccncc3)c12 [Compound A]
IC50 (Casein Kinase 2): > 100 µM | IC50 (CDK1): > 100 µM | IC50 (Calmodulin Kinase): > 100 µM | IC50 (PK A; mean of at least two curves, read-out: PK A): > 100 µM | IC50 (Insulin Receptor Kinase): > 100 µM | IC50 (Casein Kinase 1): 116 nM | IC50 [2, 6]: 9.7 µM | Emax [2, 7]: > 80% | IC50 (PKC-γ): 8.35 µM

CN([C@@H](Cc1ccc(OS(=O)(=O)c2cccc3cnccc23)cc1)C(=O)N1CCN(c2ccccc2)CC1)S(=O)(=O)c1cccc2cnccc12 [KN62]
Ki (CAMKII): ~900 nM | Maximal Efficacy for Neuroprotection ([2]; 3 mM glutamate + 1 mM glycine): <10% | IC50 for Neuroprotection [lower-upper 95% C.I.] [2, 8]: Ineffective

O=C(O)c1cc(N(Cc2ccccc2O)Cc2cc(O)ccc2O)ccc1O [Lavendustin A]
Maximal Efficacy for Neuroprotection ([2]; 3 mM glutamate + 1 mM glycine): <25% | IC50 [2, 8]: > 10 µM | IC50 (p60^c-src): ~500 nM | IC50 (EGF receptor): ~11 nM

C[C@]12N[C@H](Cc3ccccc31)c1ccccc12 [MK-801]
inhibition of [3H]-MK-801 binding (NMDA receptor [3]): 100% | Maximal protection against glutamate toxicity ([2]; 3 mM glutamate and 1 mM glycine-induced P19 neuron death): close to control levels | effect on glutamate/glycine-induced intracellular calcium response (NMDA receptor [4]): significantly inhibited

N#CC(=C(/N)Sc1ccccc1N)/C(C#N)=C(/N)Sc1ccccc1N [U0126, bis[amino[(2-aminophenyl)thio]methylene] Butanedinitrile]
IC50 (Casein Kinase 2): > 100 µM | IC50 (EGF-R): > 100 µM | IC50 (CDK1): > 100 µM | IC50 (Calmodulin Kinase): > 100 µM | IC50 (PK A): > 100 µM | IC50 (Casein Kinase 1): > 100000 nM | effect on basal P19 neuron viability (P19 neurons [5]): did not affect the basal viability | IC50 [2, 6]: 1.1 µM | Emax [2, 7]: > 80% | IC50 (PKC-γ): 29.5 µM

Calphostin C
IC50 (PKC): ~50 nM | IC50 (PKA): > 50 µM | IC50 (PKG): > 25 µM | Maximal Efficacy for Neuroprotection ([2]; 3 mM glutamate + 1 mM glycine): ˜50% | IC50 [2, 8]: > 1 µM | IC50 (p60^c-src): > 50000 nM

Reference: US20020198219A1, “2-pyridinamine compositions and related methods” (priority 2000, published 2002)
